Assays:
MAPK2 = test system: MAPK2; parameters: method as in ref [25] (a number printed in a supplementary file, which may have a reference list of its own: not looked up in the article's list); settings: control 100 µM; compounds 1 µM; ref [25]; cited from earlier work
P. falciparum HDAC1 = P. falciparum HDAC1 (Plasmodium falciparum, UniProt Q7K6A1); assay: PfHDAC1 HDAC glo I/II; type: biochemical; settings: 50nM
[1] = target: Pf KRS Lysyl-tRNA Synthetase (Plasmodium falciparum, UniProt Q8IDJ8); assay: PfKRS Kinase-Glo aminoacylation; settings: control 1µM; compounds 10 µM
Sequence of Pf KRS Lysyl-tRNA Synthetase (Q8IDJ8 entry or part of it): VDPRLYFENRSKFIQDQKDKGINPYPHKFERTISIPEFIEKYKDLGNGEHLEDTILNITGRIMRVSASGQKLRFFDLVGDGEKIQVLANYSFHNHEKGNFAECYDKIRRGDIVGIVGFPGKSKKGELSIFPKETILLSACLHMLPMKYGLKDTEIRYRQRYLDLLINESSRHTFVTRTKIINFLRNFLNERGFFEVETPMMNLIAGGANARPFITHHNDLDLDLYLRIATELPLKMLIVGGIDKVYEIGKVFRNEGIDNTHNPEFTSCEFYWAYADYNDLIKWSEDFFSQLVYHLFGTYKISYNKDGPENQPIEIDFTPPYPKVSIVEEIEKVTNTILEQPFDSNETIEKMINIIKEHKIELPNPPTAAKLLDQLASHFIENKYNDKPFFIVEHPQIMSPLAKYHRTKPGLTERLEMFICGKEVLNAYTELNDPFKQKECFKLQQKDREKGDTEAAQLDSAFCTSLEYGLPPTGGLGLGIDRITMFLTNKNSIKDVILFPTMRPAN

[2] = target: Pf ProRS Prolyl-tRNA synthetase (Plasmodium falciparum, UniProt Q8I5R7); assay: PfProRS Kinase-Glo aminoacylation; settings: control 1µM; compounds 10 µM
Sequence of Pf ProRS Prolyl-tRNA synthetase (Q8I5R7 8-746): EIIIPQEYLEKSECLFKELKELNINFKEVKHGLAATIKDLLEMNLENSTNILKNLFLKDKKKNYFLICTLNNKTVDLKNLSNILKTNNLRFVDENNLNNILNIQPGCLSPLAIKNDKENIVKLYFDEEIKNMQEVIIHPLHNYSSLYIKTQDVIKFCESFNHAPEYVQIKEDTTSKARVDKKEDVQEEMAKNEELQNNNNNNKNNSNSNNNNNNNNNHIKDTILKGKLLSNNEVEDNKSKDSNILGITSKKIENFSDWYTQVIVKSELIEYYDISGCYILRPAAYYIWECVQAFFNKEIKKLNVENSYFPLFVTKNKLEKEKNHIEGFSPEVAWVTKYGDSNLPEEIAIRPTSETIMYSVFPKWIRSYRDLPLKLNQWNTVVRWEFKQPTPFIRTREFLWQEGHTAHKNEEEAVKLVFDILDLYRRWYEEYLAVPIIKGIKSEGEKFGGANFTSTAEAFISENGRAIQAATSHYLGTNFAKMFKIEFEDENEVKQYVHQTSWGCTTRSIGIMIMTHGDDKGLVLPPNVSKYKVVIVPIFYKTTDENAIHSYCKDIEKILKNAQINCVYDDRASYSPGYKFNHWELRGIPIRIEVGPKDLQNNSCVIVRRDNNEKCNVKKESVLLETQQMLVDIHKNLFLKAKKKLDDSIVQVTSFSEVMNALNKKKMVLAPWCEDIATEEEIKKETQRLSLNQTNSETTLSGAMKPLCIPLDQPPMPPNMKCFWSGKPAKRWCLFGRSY

PK7 = test system: PK7; parameters: method as in ref [25] (a number printed in a supplementary file, which may have a reference list of its own: not looked up in the article's list); settings: control 100 µM; compounds 1 µM; ref [25]; cited from earlier work
cruzain = cruzain (Trypanosoma cruzi, UniProt P25779); assay: cruzain Z-FR-AMC cleavage; type: biochemical; settings: 500 nM
Sequence of cruzain (P25779 123-337): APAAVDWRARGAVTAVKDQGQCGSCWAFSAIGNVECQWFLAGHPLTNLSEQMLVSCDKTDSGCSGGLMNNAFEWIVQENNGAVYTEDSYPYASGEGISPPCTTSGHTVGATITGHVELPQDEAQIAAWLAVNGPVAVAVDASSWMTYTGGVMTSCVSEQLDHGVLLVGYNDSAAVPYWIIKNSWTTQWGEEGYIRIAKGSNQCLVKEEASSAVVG
Protocol: (§1) Cysteine Protease Inhibitors Cruzain and Rhodesain, Ferreira group (data presented first in this paper). Recombinant cruzain was gently provided by Allison Doak and Dr. Brian Shoichet (University of California, San Francisco), while rhodesain was kindly provided by Dr. Conor Caffrey (Center for Discovery and Innovation in Parasitic Diseases, Skaggs School of Pharmacy and Pharmaceutical Sciences, University of California San Diego). Cruzain and rhodesain activity were measured as previously described, (Ferreira et al., 2010) by monitoring the cleavage of the fluorogenic substrate Z-Phe-Argaminomethylcoumarin (Z-FR-AMC) in a Synergy 2 (Biotek), from the Center of Flow Cytometry and Fluorimetry at the Biochemistry and Immunology Department (Universidade Federal de Minas Gerais, UFMG). Formation of fluorescent 4-amino-7-metyhlcoumarin was measured employing 340 nm wavelength for excitation and 440 nm for emission. […] Initially compounds were pre-incubated with the enzyme for 10 minutes in 100 µL assay buffer, then 100 µL of 5 μM substrate solution was added and the reaction was immediately monitored. Assays were performed in duplicate, followed for 5 min and activity was calculated based on initial velocities. […] Reported values refer to average and standard errors calculated based on duplicates. […] Data was analyzed with Prism 5.0 (GraphPad). […]

rhodesain = rhodesain (Trypanosoma brucei rhodesiense, UniProt Q95PM0); assay: rhodesain Z-FR-AMC cleavage; type: biochemical; settings: 500 nM
Sequence of rhodesain (Q95PM0 entry or part of it): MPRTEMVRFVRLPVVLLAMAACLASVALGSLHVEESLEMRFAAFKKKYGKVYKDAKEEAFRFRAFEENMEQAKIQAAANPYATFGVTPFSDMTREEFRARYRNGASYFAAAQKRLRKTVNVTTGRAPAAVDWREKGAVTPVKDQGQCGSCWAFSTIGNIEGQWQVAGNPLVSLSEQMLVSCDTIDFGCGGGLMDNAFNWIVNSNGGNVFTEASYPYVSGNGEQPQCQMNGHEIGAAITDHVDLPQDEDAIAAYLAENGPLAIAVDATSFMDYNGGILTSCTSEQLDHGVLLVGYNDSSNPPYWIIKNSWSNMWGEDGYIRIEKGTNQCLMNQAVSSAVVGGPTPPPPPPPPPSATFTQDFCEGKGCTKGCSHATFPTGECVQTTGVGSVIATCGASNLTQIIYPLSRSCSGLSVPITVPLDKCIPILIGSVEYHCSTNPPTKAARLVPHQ
Protocol: as §1

P. falciparum HB3 = assay: Stage-specificity / mitochondrial integrity image assay Ayong; type: cell-based; settings: 10µM
PfCDPK4 = settings: ref [25]; cited from earlier work
dUTPase = target: T1, dUTPase (Plasmodium falciparum, UniProt Q8II92); assay: Bioaffinity Mass Spectrometry Screening, dUTPase; type: binding; settings: compound:protein ~5:1
T1 construct: […]; made in house
T1 sequence (Q8II92 whole entry, added parts left off): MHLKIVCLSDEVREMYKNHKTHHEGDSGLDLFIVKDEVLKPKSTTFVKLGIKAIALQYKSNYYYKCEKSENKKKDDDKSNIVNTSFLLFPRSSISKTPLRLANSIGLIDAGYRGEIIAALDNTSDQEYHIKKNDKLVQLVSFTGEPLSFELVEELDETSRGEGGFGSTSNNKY
Protocol: Bioaffinity Mass Spectrometry Screening Method
Recombinant proteins were prepared by the Van Voorhis group according to the same protocol as in [25]. Proteins were buffer-exchanged into a suitable volatile buffer (ammonium acetate or ammonium bicarbonate) for native ESI-MS. Depending on the protein, the buffer and its concentration is chosen to obtain the highest sensitivity in the mass spectrometer. We have chosen ammonium acetate buffer (10mM, pH 7) for these two proteins, dUTPase and 6-Phosphogluconolactonase.
High-resolution Fourier transform mass spectrometry (FTMS) can identify the molecular weight of the bound ligand. The difference between the mass-to-charge ratio (Δm/z) for the unbound protein and the [protein-bound ligand] complex ions was multiplied by the charge state (z) to directly afford the molecular weight of the bound ligand, using the following equation.
The BMSS assay was performed on 400 Malaria Box compounds against 25 Plasmodium falciparum proteins, which are critical in malaria cell growth and invasion. Pools of eight Malaria Box compounds (each compound 1 µL, 1 mM in methanol) were incubated with a P. falciparum protein one hour at room temperature. When a non-covalent complex was found, the molecular weight of the binding compound was deducted from the spectrum. On the basis of this information, a binding confirmation on the selected compound was performed. […]

P. falciparum = assay: EC50 listed in S2 Table Metabolomics (used to set the concentration tested); type: cell-based; settings: Plasmodium falciparum; EC50 used for Factor_XEC50 in metabolomics; read-out: EC50_nM
PvEg5 = test system: PvEg5; parameters: method as in ref [29] (a number printed in a supplementary file, which may have a reference list of its own: not looked up in the article's list); settings: ref [29]; cited from earlier work
PfEg5 = test system: PfEg5; parameters: method as in ref [29] (a number printed in a supplementary file, which may have a reference list of its own: not looked up in the article's list); settings: ref [29]; cited from earlier work
[3] = test system: P. falciparum 3D7 trophozoites; assay: Metabolomic fingerprint profiling LC-MS; type: cell-based, Plasmodium falciparum; parameters: UDP-D-glucose / ADP-D-glucose: unit not given here
[4] = metabolite level change after treatment

Sequence of P. falciparum HDAC1 (Q7K6A1 entry or part of it): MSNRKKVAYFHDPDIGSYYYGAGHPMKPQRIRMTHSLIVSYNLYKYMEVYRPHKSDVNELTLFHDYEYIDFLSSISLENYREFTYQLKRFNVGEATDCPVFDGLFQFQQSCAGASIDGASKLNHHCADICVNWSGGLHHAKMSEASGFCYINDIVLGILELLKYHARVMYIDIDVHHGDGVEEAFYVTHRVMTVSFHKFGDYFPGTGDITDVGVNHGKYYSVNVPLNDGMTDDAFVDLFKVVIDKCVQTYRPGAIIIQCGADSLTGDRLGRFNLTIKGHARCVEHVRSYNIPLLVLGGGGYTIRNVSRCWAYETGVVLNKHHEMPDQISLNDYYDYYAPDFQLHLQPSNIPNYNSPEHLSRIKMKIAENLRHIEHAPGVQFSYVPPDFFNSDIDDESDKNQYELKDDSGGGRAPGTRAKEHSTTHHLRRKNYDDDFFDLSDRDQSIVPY

In the case of `Nc1ncnc2c1ncn2[C@@H]1O[C@H](COP(=O)(O)OP(=O)(O)NP(=O)(O)O)[C@@H](O)[C@H]1O` [AMP-PNP], the MAPK2 % inhibition (MAPK2) is listed as > 80%.

Work on `CC(/C=C/C(=O)NO)=C\[C@@H](C)C(=O)c1ccc(N(C)C)cc1` [trichostatin A] yielded a PfHDAC1 % inhibition (P. falciparum HDAC1) of 89.9 ± 0.5%.

For `C[C@H]1CCC[C@H](C[C@H]2Cc3cc(O)cc(O)c3C(=O)O2)O1` [Cladosporin], the PfKRS % inhibition [1] was 100%.

`O=C(CC1NCCCC1O)Cn1cnc2cc(Br)c(Cl)cc2c1=O` (centres unmarked) [halofuginone] showed a PfProRS % inhibition [2] of 100%.

For `CC(C)(C)n1nc(-c2cccc3ccccc23)c2c(N)ncnc21` [1NA-PP1], the PK7 % inhibition (PK7) is listed as > 80%.

With `CC(C)C[C@H](NC(=O)[C@H]1O[C@@H]1C(=O)O)C(=O)NCCCCN=C(N)N` (relative stereo) [E-64, trans-Epoxysuccinyl-L-leucylamido-(4-guanidino) butane] the cruzain % inhibition (cruzain) was “approximately 100%”, the rhodesain % inhibition (rhodesain) was “approximately 100%” and the “Effects on asexual life cycle progression (treatment at ER, LR, T, S; merozoites; mitochondrial integrity)” value (P. falciparum HB3) was “X-S-S-X-o-o”.

In the case of `O=c1nc(C=Cc2ccc(Br)cc2)oc2ccccc12` [MMV666599], the IC50 (PfCDPK4) is listed as 0.7 µM and the “binding to dUTPase (confirmation)” value (dUTPase) is listed as “binding”.

For `COc1cccc(C=Cc2nc(=O)c3ccccc3o2)c1OC` [MMV666693], the EC50 (P. falciparum) is listed as 0.0238 µM, the “PvEg5 ATPase inhibition in words” value (PvEg5) is listed as “selective inhibitor” and the “PfEg5 ATPase inhibition in words” value (PfEg5) is listed as “selective inhibitor”. The Acetyllysine ([3]; S2 Table Metabolomics, metabolite Acetyllysine) was 0.1397, the N-acetyl-L-ornithine ([3]; S2 Table Metabolomics, metabolite N-acetyl-L-ornithine) was 0.2363 and the N-carbamoyl-L-aspartate ([3]; S2 Table Metabolomics, metabolite N-carbamoyl-L-aspartate) was 3.172. The NADPH ([3]; S2 Table Metabolomics, metabolite NADPH) was 0.2825, the dAMP ([3]; S2 Table Metabolomics, metabolite dAMP) was -0.08701 and the dCMP ([3]; S2 Table Metabolomics, metabolite dCMP) was 0.2474. For the same compound, the dTDP ([3]; S2 Table Metabolomics, metabolite dTDP) was -0.7354, the dTMP ([3]; S2 Table Metabolomics, metabolite dTMP) was -0.4318 and the dTTP ([3]; S2 Table Metabolomics, metabolite dTTP) was -0.1932. It also gave a dihydroorotate ([3]; S2 Table Metabolomics, metabolite dihydroorotate) of 3.894, an orotate ([3]; S2 Table Metabolomics, metabolite orotate) of -0.9184 and a DLH ([3]; S2 Table Metabolomics, peptide DLH) of -0.06293. It also gave a DLS/SDL/SID ([3]; S2 Table Metabolomics, peptide DLS/SDL/SID) of -0.09731, a PD ([3]; S2 Table Metabolomics, peptide PD) of 0.5949 and a PEE ([3]; S2 Table Metabolomics, peptide PEE) of -0.05317. For the same compound, the PVNF ([3]; S2 Table Metabolomics, peptide PVNF) was -0.1239, the 3-phosphoglycerate ([3]; metabolite 3-phosphoglycerate, S2 Table Metabolomics) was 0.2329 and the ADP-D-glucose ([3]; metabolite ADP-D-glucose, S2 Table Metabolomics) was 0.3504. It also gave an ATP ([3]; metabolite ATP, S2 Table Metabolomics) of 0.6585, a CDP ([3]; metabolite CDP, S2 Table Metabolomics, change in metabolite level after compound treatment) of -0.7718 and a D-sedoheptulose-1/7-phosphate ([3]; metabolite D-sedoheptulose-1/7-phosphate, S2 Table Metabolomics, change in metabolite level after compound treatment) of 0.3935. The FAD ([3]; metabolite FAD, S2 Table Metabolomics) was 0.6886, the GMP ([3]; metabolite GMP, S2 Table Metabolomics, change in metabolite level after compound treatment) was 2.325 and the “NAD+” value ([3]; metabolite NAD+, S2 Table Metabolomics) was 0.3862. For the same compound, the “NADP+” value ([3]; metabolite NADP+, S2 Table Metabolomics) was 0.1667, the “Octoluse Bisphosphate” value ([3]; metabolite Octoluse Bisphosphate, S2 Table Metabolomics, change in metabolite level after compound treatment) was 0.214 and the Pyroglutamic acid ([3]; metabolite Pyroglutamic acid, S2 Table Metabolomics) was -0.09945. It also gave a UDP-D-glucose ([3]; metabolite UDP-D-glucose, S2 Table Metabolomics) of 0.3609, a UDP-D-glucuronate ([3]; metabolite UDP-D-glucuronate, S2 Table Metabolomics) of 0.4012 and a UDP-N-acetyl-glucosamine ([3]; metabolite UDP-N-acetyl-glucosamine, S2 Table Metabolomics) of 0.3198. It also gave a UDP ([3]; metabolite UDP, S2 Table Metabolomics, change in metabolite level after compound treatment) of -0.8743, a UMP ([3]; metabolite UMP, S2 Table Metabolomics, change in metabolite level after compound treatment) of -0.7276 and a UTP ([3]; metabolite UTP, S2 Table Metabolomics, change in metabolite level after compound treatment) of -0.635. The a-ketoglutarate ([3]; metabolite a-ketoglutarate, S2 Table Metabolomics) was -0.04301, the citrate/isocitrate ([3]; metabolite citrate/isocitrate, S2 Table Metabolomics, change in metabolite level after compound treatment) was -0.1473 and the cytidine ([3]; metabolite cytidine, S2 Table Metabolomics) was 0.3511. The dATP ([3]; metabolite dATP, S2 Table Metabolomics) was 0.7712, the dGMP/AMP ([3]; metabolite dGMP/AMP, S2 Table Metabolomics, change in metabolite level after compound treatment) was -0.2164 and the fumarate ([3]; metabolite fumarate, S2 Table Metabolomics, change in metabolite level after compound treatment) was 0.7025. For the same compound, the glucose-1/6-phosphate ([3]; metabolite glucose-1/6-phosphate, S2 Table Metabolomics, change in metabolite level after compound treatment) was 0.5191, the glycerate ([3]; metabolite glycerate, S2 Table Metabolomics, change in metabolite level after compound treatment) was -0.06297 and the guanine ([3]; metabolite guanine, S2 Table Metabolomics, change in metabolite level after compound treatment) was 0.6599. For the same compound, the guanosine ([3]; metabolite guanosine, S2 Table Metabolomics, change in metabolite level after compound treatment) was 0.8246, the hypoxanthine ([3]; metabolite hypoxanthine, S2 Table Metabolomics) was 0.08871 and the indole ([3]; metabolite indole, S2 Table Metabolomics) was 0.0369. For the same compound, the inosine ([3]; metabolite inosine, S2 Table Metabolomics, change in metabolite level after compound treatment) was 0.4625, the 2_3-Diphosphoglyceric acid [3, 4] was 0.5942 and the 4-phosphopantothenate [3, 4] was 0.0573. The 6-phospho-D-gluconate [3, 4] was 0.4861, the FMN [3, 4] was 0.3054 and the IMP [3, 4] was 0.1618. The Pyrophosphate [3, 4] was 0.3262, the Sedoheptoluse bisphosphate [3, 4] was 0.378 and the cyclic-AMP [3, 4] was 0.4484. It also gave a glutathione disulfide [3, 4] of 0.6375, a lactate [3, 4] of 0.2118 and a myo-inositol [3, 4] of 0.3466. The nicotinate ([3]; metabolite nicotinate, S2 Table Metabolomics) was 0.3154, the ornithine ([3]; metabolite ornithine, S2 Table Metabolomics) was 0.1755 and the phosphoenolpyruvate ([3]; metabolite phosphoenolpyruvate, S2 Table Metabolomics) was 0.1481. The pyruvate ([3]; metabolite pyruvate, S2 Table Metabolomics, change in metabolite level after compound treatment) was -0.005171, the ribose-phosphate ([3]; metabolite ribose-phosphate, S2 Table Metabolomics) was 0.3602 and the sarcosine/alanine ([3]; metabolite sarcosine/alanine, S2 Table Metabolomics, change in metabolite level after compound treatment) was 0.4257. For the same compound, the sn-glycerol-3-phosphate ([3]; metabolite sn-glycerol-3-phosphate, S2 Table Metabolomics) was 0.6187, the succinate/methylmalonic acid ([3]; metabolite succinate/methylmalonic acid, S2 Table Metabolomics, change in metabolite level after compound treatment) was 0.3609 and the uridine ([3]; metabolite uridine, S2 Table Metabolomics, change in metabolite level after compound treatment) was -0.1766. For the same compound, the xanthosine ([3]; metabolite xanthosine, S2 Table Metabolomics, change in metabolite level after compound treatment) was 0.5199.

From article PMC4965013, “Open Source Drug Discovery with the Malaria Box Compound Collection for Neglected Diseases and Beyond” (PLoS Pathogens, 2016)
